Assay results as given in US11046680B1, “Heteroaryl-substituted triazoles as APJ receptor agonists” (priority 2016, dated 2021).
pEC50: −log10 of the molar value.

Biological target: human APJ receptor (Homo sapiens (Human), UniProt P35414)
Test: biochemical
Type: biochemical
Conditions: [35S]GTPγS binding, CHO membranes expressing human APJ receptor; read-out: Activity hAPJ SPA EC50 IP
Outline: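 Membranes of a stable CHO line carrying human APJ (pFLAG-CMV-3) were used in a GTPγS binding format; buffer GDP, MgCl2 and NaCl were optimized, and plates were read after 90 min at RT.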

human APJ receptor, sequence (P35414 whole entry): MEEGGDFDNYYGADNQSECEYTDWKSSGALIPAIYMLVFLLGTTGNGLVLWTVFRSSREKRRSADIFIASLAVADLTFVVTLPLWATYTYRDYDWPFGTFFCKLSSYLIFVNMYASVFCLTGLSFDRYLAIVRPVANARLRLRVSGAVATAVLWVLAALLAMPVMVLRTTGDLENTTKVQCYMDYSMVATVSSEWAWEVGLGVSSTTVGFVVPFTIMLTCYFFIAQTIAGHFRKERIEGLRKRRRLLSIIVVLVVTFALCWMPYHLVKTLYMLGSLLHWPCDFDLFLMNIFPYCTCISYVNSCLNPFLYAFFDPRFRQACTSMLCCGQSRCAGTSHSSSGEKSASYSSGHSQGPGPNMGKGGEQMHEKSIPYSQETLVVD

Row | Structure (SMILES) | pEC50
1 | COc1cccc(OC)c1-n1c(NS(=O)(=O)[C@@H](C)[C@H](OC)c2ncc(C)cn2)nnc1-c1cnn2c1CCC2 [Example 444.0, (1R,2S)-N-(5-(5,6-dihydro-4H-pyrrolo[1,2-b]pyrazol-3-yl)-4-(2,6-dimethoxyphenyl)-4H-1,2,4-triazol-3-yl)-1-methoxy-1-(5-methylpyrimidin-2-yl)propane-2-sulfonamide] | 8.92
2 | COc1cccc(OC)c1-n1c(NS(=O)(=O)[C@@H](C)[C@H](C)c2ncc(Cl)cn2)nnc1-c1cnn2c1CCC2 [Example 445.0, (2S,3R)-3-(5-chloropyrimidin-2-yl)-N-(5-(5,6-dihydro-4H-pyrrolo[1,2-b]pyrazol-3-yl)-4-(2,6-dimethoxyphenyl)-4H-1,2,4-triazol-3-yl)butane-2-sulfonamide] | 10.05
3 | COc1cccc(OC)c1-n1c(NS(=O)(=O)[C@@H](C)[C@@H](OC(C)C)c2ncc(C)cn2)nnc1-c1cnn2c1CCC2 [Example 446.0, (1S,2S)-N-(5-(5,6-dihydro-4H-pyrrolo[1,2-b]pyrazol-3-yl)-4-(2,6-dimethoxyphenyl)-4H-1,2,4-triazol-3-yl)-1-isopropoxy-1-(5-methylpyrimidin-2-yl)propane-2-sulfonamide] | 9.13
4 | COc1cccc(OC)c1-n1c(NS(=O)(=O)[C@@H](C)[C@@H](OC(C)C)c2ncc(Cl)cn2)nnc1-c1cnn2c1CCC2 [Example 447.0, (1S,2S)-1-(5-chloropyrimidin-2-yl)-N-(5-(5,6-dihydro-4H-pyrrolo[1,2-b]pyrazol-3-yl)-4-(2,6-dimethoxyphenyl)-4H-1,2,4-triazol-3-yl)-1-isopropoxypropane-2-sulfonamide] | 9.92
5 | COCC(COC)n1c(NS(=O)(=O)[C@@H](C)[C@H](C)c2ncc(Cl)cn2)nnc1-c1nn(C)c2ccc(C)cc12 [Example 448.0, (2S,3R)-3-(5-chloropyrimidin-2-yl)-N-(4-(1,3-dimethoxypropan-2-yl)-5-(1,5-dimethyl-1H-indazol-3-yl)-4H-1,2,4-triazol-3-yl)butane-2-sulfonamide] | 8.00
6 | COCC(COC)n1c(NS(=O)(=O)[C@@H](C)[C@H](C)c2ncc(Cl)cn2)nnc1-c1nn(C)c2ccccc12 [Example 449.0, (2S,3R)-3-(5-chloropyrimidin-2-yl)-N-(4-(1,3-dimethoxypropan-2-yl)-5-(1-methyl-1H-indazol-3-yl)-4H-1,2,4-triazol-3-yl)butane-2-sulfonamide] | 7.89
7 | COc1ncnc(OC)c1-n1c(NS(=O)(=O)[C@@H](C)[C@H](OC)c2ncc(Cl)cn2)nnc1-c1ccn(C)n1 [Example 450.0, (1R,2S)-1-(5-chloro-2-pyrimidinyl)-N-(4-(4,6-dimethoxy-5-pyrimidinyl)-5-(1-methyl-1H-pyrazol-3-yl)-4H-1,2,4-triazol-3-yl)-1-methoxy-2-propanesulfonamide] | 9.09
8 | COCC(COC)n1c(NS(=O)(=O)[C@@H](C)[C@H](C)c2cnc(OC)cn2)nnc1-c1ccn(C)n1 [Example 453.0, (2S,3R)-N-(4-(1,3-dimethoxy-2-propanyl)-5-(1-methyl-1H-pyrazol-3-yl)-4H-1,2,4-triazol-3-yl)-3-(5-methoxy-2-pyrazinyl)-2-butanesulfonamide] | 7.14
9 | COCC1(n2c(NS(=O)(=O)[C@@H](C)[C@H](C)c3cnc(OC)cn3)nnc2-c2ccn(C)n2)CC1 [Example 454.0, (2S,3R)-N-(4-(1-(methoxymethyl)cyclopropyl)-5-(1-methyl-1H-pyrazol-3-yl)-4H-1,2,4-triazol-3-yl)-3-(5-methoxy-2-pyrazinyl)-2-butanesulfonamide] | 7.25
10 | COc1ccc([C@@H](OC)[C@H](C)S(=O)(=O)Nc2nnc(-c3ccn(C)n3)n2-c2c(OC)ncnc2OC)nc1 [Example 455.0, (1R,2S)-N-(4-(4,6-dimethoxy-5-pyrimidinyl)-5-(1-methyl-1H-pyrazol-3-yl)-4H-1,2,4-triazol-3-yl)-1-methoxy-1-(5-methoxy-2-pyridinyl)-2-propanesulfonamide] | 8.24
11 | COc1ncnc(OC)c1-n1c(NS(=O)(=O)[C@@H](C)[C@@H](OC(C)C)c2ncc(Cl)cn2)nnc1-c1ccn(C)n1 [Example 456.0, (1S,2S)-1-(5-chloro-2-pyrimidinyl)-N-(4-(4,6-dimethoxy-5-pyrimidinyl)-5-(1-methyl-1H-pyrazol-3-yl)-4H-1,2,4-triazol-3-yl)-1-(1-methylethoxy)-2-propanesulfonamide] | 9.22
12 | COc1cnc([C@H](C)[C@@H](C)S(=O)(=O)Nc2nnc(-c3ccn(C)n3)n2-c2c(OC)cccc2OC)nc1 [Example 457.0, (2R,3S)-N-(4-(2,6-dimethoxyphenyl)-5-(1-methyl-1H-pyrazol-3-yl)-4H-1,2,4-triazol-3-yl)-3-(5-methoxy-2-pyrimidinyl)-2-butanesulfonamide] | 7.60
13 | COc1ccc([C@@H](C)[C@H](C)S(=O)(=O)Nc2nnc(-c3ccn(C)n3)n2-c2c(OC)ncnc2OC)nc1 [Example 458.0, (2S,3R)-N-(4-(4,6-dimethoxy-5-pyrimidinyl)-5-(1-methyl-1H-pyrazol-3-yl)-4H-1,2,4-triazol-3-yl)-3-(5-methoxy-2-pyridinyl)-2-butanesulfonamide] | 8.55
14 | COc1ccc([C@@H](C)[C@H](C)S(=O)(=O)Nc2nnc(-c3ccn(C)n3)n2-c2c(OC)cccc2OC)nc1 [Example 459.0, (2S,3R)-N-(4-(2,6-dimethoxyphenyl)-5-(1-methyl-1H-pyrazol-3-yl)-4H-1,2,4-triazol-3-yl)-3-(5-methoxy-2-pyridinyl)-2-butanesulfonamide] | 9.48
15 | COc1cnc([C@@H](OC)[C@H](C)S(=O)(=O)Nc2nnc(-c3ccn(C)n3)n2-c2c(OC)ncnc2OC)cn1 [Example 460.0, (1R,2S)-N-(4-(4,6-dimethoxy-5-pyrimidinyl)-5-(1-methyl-1H-pyrazol-3-yl)-4H-1,2,4-triazol-3-yl)-1-methoxy-1-(5-methoxy-2-pyrazinyl)-2-propanesulfonamide] | 8.59
16 | COc1ncnc(OC)c1-n1c(NS(=O)(=O)[C@@H](C)[C@@H](OC(C)C)c2cnc(C)cn2)nnc1-c1ccn(C)n1 [Example 461.0, (1S,2S)-N-(4-(4,6-dimethoxy-5-pyrimidinyl)-5-(1-methyl-1H-pyrazol-3-yl)-4H-1,2,4-triazol-3-yl)-1-(5-methyl-2-pyrazinyl)-1-(2-propanyloxy)-2-propanesulfonamide] | 8.05
17 | COCC1(n2c(NS(=O)(=O)[C@@H](C)[C@@H](OC(C)C)c3ncc(C)cn3)nnc2-c2ccn(C)n2)CC1 [Example 462.0, (1S,2S)-N-(4-(1-(methoxymethyl)cyclopropyl)-5-(1-methyl-1H-pyrazol-3-yl)-4H-1,2,4-triazol-3-yl)-1-(5-methyl-2-pyrimidinyl)-1-(2-propanyloxy)-2-propanesulfonamide] | 8.39
18 | CO[C@H](c1ncc(Cl)cn1)[C@H](C)S(=O)(=O)Nc1nnc(-c2cnn3c2CCC3)n1C1CC1 [Example 478.0] | 7.96
19 | COc1cccc(OC)c1-n1c(NS(=O)(=O)[C@@H](C)[C@H](C)c2ncc(F)cn2)nnc1-c1cnn2c1CCC2 [Example 479.0, (2S,3R)-N-(5-(5,6-dihydro-4H-pyrrolo[1,2-b]pyrazol-3-yl)-4-(2,6-dimethoxyphenyl)-4H-1,2,4-triazol-3-yl)-3-(5-fluoropyrimidin-2-yl)butane-2-sulfonamide] | 9.25
20 | COc1ncnc(OC)c1-n1c(NS(=O)(=O)[C@@H](C)[C@H](C)c2ncc(F)cn2)nnc1-c1cnn2c1CCC2 [Example 480.0, (2S,3R)-N-(5-(5,6-dihydro-4H-pyrrolo[1,2-b]pyrazol-3-yl)-4-(4,6-dimethoxypyrimidin-5-yl)-4H-1,2,4-triazol-3-yl)-3-(5-fluoropyrimidin-2-yl)butane-2-sulfonamide] | 8.36
21 | COc1cccc(OC)c1-n1c(NS(=O)(=O)[C@@H](C)[C@@H](OC(C)C)c2ncc(F)cn2)nnc1-c1cnn2c1CCC2 [Example 482.0, (1S,2S)-N-(5-(5,6-dihydro-4H-pyrrolo[1,2-b]pyrazol-3-yl)-4-(2,6-dimethoxyphenyl)-4H-1,2,4-triazol-3-yl)-1-(5-fluoropyrimidin-2-yl)-1-isopropoxypropane-2-sulfonamide] | 9.42
22 | Cc1cnc([C@@H](C)[C@H](C)S(=O)(=O)Nc2nnc(-c3cnn4c3CCC4)n2-c2c(F)cccc2F)nc1 [Example 483.0, (2S,3R)-N-(4-(2,6-difluorophenyl)-5-(5,6-dihydro-4H-pyrrolo[1,2-b]pyrazol-3-yl)-4H-1,2,4-triazol-3-yl)-3-(5-methylpyrimidin-2-yl)butane-2-sulfonamide] | 8.27
23 | Cc1cnc([C@H](OC(C)C)[C@H](C)S(=O)(=O)Nc2nnc(-c3cnn4c3CCC4)n2-c2c(F)cccc2F)cn1 [Example 484.0, (1S,2S)-N-(4-(2,6-difluorophenyl)-5-(5,6-dihydro-4H-pyrrolo[1,2-b]pyrazol-3-yl)-4H-1,2,4-triazol-3-yl)-1-isopropoxy-1-(5-methylpyrazin-2-yl)propane-2-sulfonamide] | 8.04
24 | COc1cnc([C@@H](C)[C@H](C)S(=O)(=O)Nc2nnc(-c3cnn4c3CCC4)n2-c2c(OC)cccc2OC)nc1 [Example 485.0, (2S,3R)-N-(5-(5,6-dihydro-4H-pyrrolo[1,2-b]pyrazol-3-yl)-4-(2,6-dimethoxyphenyl)-4H-1,2,4-triazol-3-yl)-3-(5-methoxypyrimidin-2-yl)butane-2-sulfonamide] | 9.52
25 | COc1cnc([C@@H](C)[C@H](C)S(=O)(=O)Nc2nnc(-c3cnn4c3CCC4)n2-c2c(OC)cccc2OC)cn1 [Example 486.0, (2S,3R)-N-(5-(5,6-dihydro-4H-pyrrolo[1,2-b]pyrazo1-3-yl)-4-(2,6-dimethoxyphenyl)-4H-1,2,4-triazol-3-yl)-3-(5-methoxypyrazin-2-yl)butane-2-sulfonamide] | 9.54
26 | COc1cccc(OC)c1-n1c(NS(=O)(=O)[C@@H](C)[C@H](C)c2ncc(C)cn2)nnc1-c1cnn2c1CCC2 [Example 487.0, (2S,3R)-N-(5-(5,6-dihydro-4H-pyrrolo[1,2-b]pyrazol-3-yl)-4-(2,6-dimethoxyphenyl)-4H-1,2,4-triazol-3-yl)-3-(5-methylpyrimidin-2-yl)butane-2-sulfonamide] | 9.21
